Measurements reported in patent US9499509B2, “Dihydrochalcone derivatives and their use as antibiotic agents” (UNIVERSITÉ DU QUÉBEC À CHICOUTIMI, priority 2012, dated 2016).
Values after ≈ are worked out from the molar mass of the structure shown.

Experiments:
WS-1 cell lines = test: Cytotoxicity assay on WS-1 (Example 2); format: cell-based; design: unit not given here; settings: Table 7; WS-1, 48 h
Procedure: Cytotoxicity assay. […] The WS-1 cell lines were provided by ATCC. […] The compounds tested were then added at 8 different concentrations. […] In Table 7, the therapeutic indexes of compounds IV to XXI are presented.

[1] = test system: S. aureus wild type strain (ATCC 25923); test: Antibiotic assay (absorption 660 nm, Example 2), S. aureus wild type; format: cell-based, Staphylococcus aureus; settings: for MIC: S. aureus WT (ATCC 25923); for S. aureus WT ATCC 25923 (toxicity on bacteria): Table 7, same values as MIC of Table 6
Procedure: (§1) Antibiotic agents. Gentamicin sulfate was provided by Calbiochem. Chloramphenicol was provided by Sigma-Aldrich.
(§2) Antibiotic assay. […] The bacteria strains were inoculated in nutrients broth. […] All bacteria were plated in nutrients broth at a concentration of 450 000 bacteria/m L.
(§3) Compounds IV to XXI were diluted in dimethylsulfoxide. […] The compounds were tested at 8 different concentrations.
(§4) Each well contained: 100 μL of bacteria, 100 μL of the compounds tested. The plates were incubated at 37° C. for 6 h. The absorption was read using a Varioskan flash multimode Reader™ (Thermo Scientific) at 660 nm.
(§5) MRSA. Ten (10) strains of MRSA obtained as described above were tested along with an S. aureus wild type (WT) strain (ATCC 25923).

MRSA strains = test: Antibiotic assay (absorption 660 nm, Example 2), MRSA strains; format: cell-based, Staphylococcus aureus
Procedure: as §1, §2, §3, §4, §5

Row | Compound | MIC [1] [µM] | MIC (MRSA strains; MRSA 1) [µM] | MIC (MRSA strains; MRSA 2) [µM] | MIC (MRSA strains; MRSA 3) [µM] | MIC (MRSA strains; MRSA 4) [µM] | MIC (MRSA strains; MRSA 5) [µM] | MIC (MRSA strains; MRSA 6) [µM] | MIC (MRSA strains; MRSA 7) [µM] | MIC (MRSA strains; MRSA 8) [µM] | MIC (MRSA strains; MRSA 9) [µM] | MIC (MRSA strains; MRSA 10) [µM] | WS-1 (toxicity on normal cells, fibroblast) (WS-1 cell lines) | S. aureus WT ATCC 25923 (toxicity on bacteria) [1]
1 | O=C(CCc1ccccc1)c1c(O)cc(O)c2c1O[C@H](c1ccc(O)cc1)CC2 [V] | 2.5 ± 0.2 (≈ 0.976 µg/mL) | 4.1 ± 0.1 (≈ 1.6 µg/mL) | 2.58 ± 0.10 (≈ 1.01 µg/mL) | 3.8 ± 0.2 (≈ 1.48 µg/mL) | 4.7 ± 0.4 (≈ 1.84 µg/mL) | 4.4 ± 0.1 (≈ 1.72 µg/mL) | 6.9 ± 0.4 (≈ 2.69 µg/mL) | 3.0 ± 0.2 (≈ 1.17 µg/mL) | 3.8 ± 0.4 (≈ 1.48 µg/mL) | 6.2 ± 0.4 (≈ 2.42 µg/mL) | 5.0 ± 0.3 (≈ 1.95 µg/mL) | >50 | 2.5 ± 0.2
2 | O=C(CCc1ccccc1)c1c(O)cc2c(c1O)CC(O)C(c1ccc(O)cc1)O2 (centres unmarked) [XIV] | 10.9 ± 0.6 (≈ 4.43 µg/mL) | 21.9 ± 0.2 (≈ 8.9 µg/mL) | 25 ± 2 (≈ 10.2 µg/mL) | 18 ± 1 (≈ 7.32 µg/mL) | 22 ± 2 (≈ 8.94 µg/mL) | 20 ± 2 (≈ 8.13 µg/mL) | 20 ± 3 (≈ 8.13 µg/mL) | 18.5 ± 0.4 (≈ 7.52 µg/mL) | 23.4 ± 1.0 (≈ 9.51 µg/mL) | 20 ± 2 (≈ 8.13 µg/mL) | 11.4 ± 0.6 (≈ 4.63 µg/mL) | >50 | 10.9 ± 0.6
3 | O=C(CCc1ccccc1)c1c(O)cc(O)c2c1OC(c1ccc(O)cc1)C(O)C2 (centres unmarked) [XVIII] | 9.9 ± 0.7 (≈ 4.02 µg/mL) | 12 ± 1 (≈ 4.88 µg/mL) | 14 ± 1 (≈ 5.69 µg/mL) | 15.9 ± 0.8 (≈ 6.46 µg/mL) | 15 ± 1 (≈ 6.1 µg/mL) | 11.5 ± 0.4 (≈ 4.67 µg/mL) | 11 ± 2 (≈ 4.47 µg/mL) | 7.5 ± 0.4 (≈ 3.05 µg/mL) | 9.5 ± 1.0 (≈ 3.86 µg/mL) | 13 ± 2 (≈ 5.28 µg/mL) | 12 ± 1 (≈ 4.88 µg/mL) | >50 | 9.9 ± 0.7
4 | O=C(CCc1ccccc1)c1c(O)cc2c(c1O)CC(O)C(c1ccc(O)cc1)O2 (centres unmarked) [XV] | 13 ± 1 (≈ 5.28 µg/mL) | 24.3 ± 0.9 (≈ 9.88 µg/mL) | 27 ± 1 (≈ 11 µg/mL) | 29 ± 3 (≈ 11.8 µg/mL) | 22 ± 2 (≈ 8.94 µg/mL) | 18 ± 2 (≈ 7.32 µg/mL) | 18.9 ± 0.4 (≈ 7.68 µg/mL) | 20 ± 1 (≈ 8.13 µg/mL) | 17 ± 2 (≈ 6.91 µg/mL) | 30 ± 1 (≈ 12.2 µg/mL) | 7.8 ± 0.3 (≈ 3.17 µg/mL) | >50 | 13 ± 1

Second part, led by results:

Row | MIC [1] [µM] | MIC (MRSA strains; MRSA 1) [µM] | MIC (MRSA strains; MRSA 2) [µM] | MIC (MRSA strains; MRSA 3) [µM] | MIC (MRSA strains; MRSA 4) [µM] | MIC (MRSA strains; MRSA 5) [µM] | MIC (MRSA strains; MRSA 6) [µM] | MIC (MRSA strains; MRSA 7) [µM] | MIC (MRSA strains; MRSA 8) [µM] | MIC (MRSA strains; MRSA 9) [µM] | MIC (MRSA strains; MRSA 10) [µM] | Compound | WS-1 (toxicity on normal cells, fibroblast) (WS-1 cell lines) | S. aureus WT ATCC 25923 (toxicity on bacteria) [1]
5 | 2.7 ± 0.3 (≈ 1.05 µg/mL) | 3.5 ± 0.1 (≈ 1.37 µg/mL) | 2.9 ± 0.2 (≈ 1.13 µg/mL) | 3.8 ± 0.3 (≈ 1.48 µg/mL) | 5.2 ± 0.4 (≈ 2.03 µg/mL) | 4.9 ± 0.6 (≈ 1.91 µg/mL) | 14.2 ± 0.9 (≈ 5.54 µg/mL) | 3.4 ± 0.2 (≈ 1.33 µg/mL) | 3.8 ± 0.3 (≈ 1.48 µg/mL) | 4.7 ± 0.2 (≈ 1.84 µg/mL) | 4.65 ± 0.06 (≈ 1.82 µg/mL) | O=C(CCc1ccccc1)c1c(O)cc(O)c2c1O[C@@H](c1ccc(O)cc1)CC2 [VI] | >50 | 2.7 ± 0.3
6 | 0.58 ± 0.02 (≈ 0.244 µg/mL) | 0.55 ± 0.07 (≈ 0.231 µg/mL) | 0.65 ± 0.03 (≈ 0.273 µg/mL) | 1.10 ± 0.07 (≈ 0.463 µg/mL) | 0.64 ± 0.02 (≈ 0.269 µg/mL) | 0.60 ± 0.01 (≈ 0.252 µg/mL) | 0.76 ± 0.04 (≈ 0.32 µg/mL) | 0.57 ± 0.06 (≈ 0.24 µg/mL) | 0.641 ± 0.01 (≈ 0.27 µg/mL) | 0.86 ± 0.03 (≈ 0.362 µg/mL) | 0.7 ± 0.1 (≈ 0.294 µg/mL) | COc1cc(O)c(C(=O)CCc2ccc(O)cc2)c2c1CC[C@H](c1ccc(O)cc1)O2 [XII] | >50 | 0.58 ± 0.02
7 | <0.39 | <0.39 | <0.39 | <0.39 | <0.39 | <0.39 | <0.39 | <0.39 | <0.39 | <0.39 | <0.39 | COc1cc(O)c(C(=O)CCc2ccc(O)cc2)c2c1CC[C@@H](c1ccc(O)cc1)O2 [XI] | >50 | <0.39
8 | 13.0 ± 0.8 (≈ 5.28 µg/mL) | 13 ± 1 (≈ 5.28 µg/mL) | 12 ± 1 (≈ 4.88 µg/mL) | 16.7 ± 0.5 (≈ 6.79 µg/mL) | 15 ± 1 (≈ 6.1 µg/mL) | 5.1 ± 0.2 (≈ 2.07 µg/mL) | 6 ± 2 (≈ 2.44 µg/mL) | 8.2 ± 0.7 (≈ 3.33 µg/mL) | 10.2 ± 0.8 (≈ 4.15 µg/mL) | 17 ± 1 (≈ 6.91 µg/mL) | 17 ± 1 (≈ 6.91 µg/mL) | O=C(CCc1ccccc1)c1c(O)cc(O)c2c1OC(c1ccc(O)cc1)C(O)C2 (centres unmarked) [XVII] | >50 | 13.0 ± 0.8
